{
  "source": "patent US6043045A",
  "about": "“Screening methods for the identification of novel antibiotics” (The Scripps Research Institute, priority 1998, dated 2000)",
  "molecules": {"B1": {"name": "KinA (histidine protein kinase) (Bacillus subtilis subsp. subtilis str. 168) (protein)", "chain": "MEQDTQHVKPLQTKTDIHAVLASNGRIIYISANSKLHLGYLQGEMIGSFLKTFLHEEDQFLVESYFYNEHHLMPCTFRFIKKDHTIVWVEAAVEIVTTRAERTEREIILKMKVLEEETGHQSLNCEKHEIEPASPESTTYITDDYERLVENLPSPLCISVKGKIVYVNSAMLSMLGAKSKDAIIGKSSYEFIEEEYHDIVKNRIIRMQKGMEVGMIEQTWKRLDGTPVHLEVKASPTVYKNQQAELLLLIDISSRKKFQTILQKSRERYQLLIQNSIDTIAVIHNGKWVFMNESGISLFEAATYEDLIGKNIYDQLHPCDHEDVKERIQNIAEQKTESEIVKQSWFTFQNRVIYTEMVCIPTTFFGEAAVQVILRDISERKQTEELMLKSEKLSIAGQLAAGIAHEIRNPLTAIKGFLQLMKPTMEGNEHYFDIVFSELSRIELILSELLMLAKPQQNAVKEYLNLKKLIGEVSALLETQANLNGIFIRTSYEKDSIYINGDQNQLKQVFINLIKNAVESMPDGGTVDIIITEDEHSVHVTVKDEGEGIPEKVLNRIGEPFLTTKEKGTGLGLMVTFNIIENHQGVIHVDSHPEKGTAFKISFPKK", "notes": "made in house; host or cells: E. coli (printed \"E. coil\")"}, "B2": {"name": "KinA (Bacillus subtilis subsp. subtilis str. 168) (protein)", "chain": "B1 chain", "notes": "made in house"}},
  "key": {"[1]": {"target": "T1, KinA (Bacillus subtilis, UniProt P16497)", "T1 construct": "made in house", "T1 sequence (P16497 1-606)": "B1 chain", "assay": "biochemical", "assay_type": "biochemical", "procedure": "The reactions were performed in a 25 μl final volume containing 100 mM Tris pH 8.0, 100 mM KCl, 2 mM MgCl2, 0.5 mM dithiothreitol, 10% (v/v) glycerol, 0.1 % (w/v) gelatin, 4% (v/v) ethanol, 200 μM total ATP containing approximately 1.5 μCi [gamma-^32 P]ATP (New England Nuclear, 6000 Ci/mMol, 150 μCi/ml), 300 μM SpoOF protein and 0.04 μM KinA protein (Perego, et al., J. Bacteriol. 171: 6187-6196 (1989)) unless otherwise indicated. Fatty acids were added to varying final concentration from solutions made with 100% ethanol (the 4% ethanol concentration in the reaction mixture reflects these addition, or in the case of controls, the addition of ethanol alone). The reactions were initiated by addition of the ATP and incubated for thirty minutes at room temperature.\nWhen higher KinA concentrations were used, the time of incubation was adjusted accordingly. The reactions were stopped by adding an equal volume of loading dye (0.25 M Tris pH 6.8, 20% (v/v) glycerol, 1% sodium dodecyl sulfate (w/v), 140 mM β-mercaptoethanol, 0.05% (w/v) bromophenol blue) and aliquots were loaded onto polyacrylamide gels (5% stacking, 15% separating, using the buffer system of Laemmi, Id., 1970).\nThe gels were run for approximately 16 hours at 10 mA constant current. The gels were covered with plastic wrap and subjected to autoradiography using Kodak XOmat RP1 film. Quantitation of activity was accomplished by cutting gels slices containing the appropriate phosphoprotein (usually SpoOF~P, see Section E below) and counting the Cerenkov radiation in a Beckman LF7500 scintillation counter (Beckman Instruments, Fullerton, Calif.). Equal-sized slices from blank areas of the gels were also counted and used to adjust for background. Percentage of activity was calculated using the value of the control reaction as 100%.\nTo quantify our initial assessment of inhibitory properties, the I0.5 values (at 4×10^-8 M KinA) were determined for each of the fatty acids. […] For example, the percent activity at an indicated oleic acid concentration is the ratio (×100) of the incorporation of ^32 P (from [γ^32 P]ATP) into the SpoOF protein relative to the incorporation in the control reaction containing no inhibitor. Typically, data are gathered from at least two different experiments. The I0.5 value is the concentration--e.g., the oleic acid concentration--corresponding to 50% activity as determined from the relevant graph."}, "[2]": {"target": "T1, KinA", "assay": "KinA autophosphorylation assay at higher KinA concentration and ATP competition series", "assay_type": "biochemical", "procedure": "(§1) The above-noted experiments were performed using a KinA concentration of […]. At this concentration, a band corresponding to KinA~P was not visible on the autoradiographs. Therefore, it could not be determined if the inhibition occurred at the KinA autophosphorylation step or at the phosphotransferase reaction between KinA~P and SpoOF. To address this question, assays were performed using a higher KinA concentration (1×10^-6 M). The prevention of stable autophosphorylation of KinA by oleic acid was confirmed. Data was gathered which verified the incorporation of ^32 P from [γ^32 P]ATP into the KinA protein in the presence of SpoOF and differing concentrations of oleic acid (not shown). The assay was performed as disclosed hereinabove, except that the KinA concentration was increased to 1×10^-6 M and the incubation time was shortened to three minutes.\n(§2) To determine the nature of the fatty acid inhibition of autophosphorylation, three series of reactions were performed. In the first series, no oleic acid was present; the second contained 2.5×10^-5 M oleic acid; the third contained 7.0×10^-5 M oleic acid. […] Even at the lowest oleic acid concentration (2.5×10^-5 M) and highest ATP level (2×10^-3 M), the KinA was greater than 95% inhibited."}, "[3]": {"target": "T1, KinA", "assay": "Test whether fatty acids serve as substrate for KinA-catalyzed phosphorylation (heptane partition)", "assay_type": "biochemical", "details": "KinA 2 μM, no SpoOF, radioactivity in organic phase", "procedure": "To determine if fatty acids served as a substrate for KinA-catalyzed phosphorylation, the following method was used. The above reaction conditions were employed except that no SpoOF was present; the KinA was at 2 μM and the reactions incubated for 5 minutes prior to the addition of fatty acids. After this initial incubation, to allow autophosphorylation to occur, 48 μl aliquots were added to tubes containing (a) two μl ethanol; (b) 2 μl of 2% oleic acid; and (c) 2 μl of 2% palmitic acid. The reactions were allowed to incubate 10 minutes after which time 0.5 ml H2 O and 0.5 ml heptane were added to each. After 10 minutes at room temperature, the phases were separated by centrifugation. The aqueous phases were washed with H2 O-saturated heptane and the heptane phases washed with heptane-saturated H2 O. The Cerenkov radiation in each phase and wash was determined.\nOleic acid was added to a reaction mixture containing KinA~[^32 P], and after a suitable incubation, the mixture was separated into organic and aqueous phases (as described above). Under the conditions used, fatty acid species would partition into the organic phase leaving the KinA~P and unincorporated [γ^32 P]ATP in the aqueous phase. The amount of radioactivity in the organic phase containing oleic acid was negligible and no different from the amount present in the control reactions (data not shown)."}, "[4]": {"target": "T2, KinA~P (Bacillus subtilis, UniProt P16497)", "T2 construct": "made in house", "assay": "Dephosphorylation of preformed KinA~P", "assay_type": "biochemical", "details": "oleic acid 2.5×10^-4M, no SpoOF", "procedure": "Next, the ability of oleic acid to enhance the dephosphorylation of preformed KinA~P was investigated. Autophosphorylation of in the presence of [γ^32 P]ATP was allowed to proceed for 60 minutes in the absence of SpoOF. At the end of this incubation, the reaction was divided into two aliquots, one receiving oleic acid to a final concentration of 2.5×10^-4M. Samples from each were withdrawn at timed intervals, fractionated on polyacrylamide gels, the KinA bands excised and the incorporated radioactivity determined."}, "[5]": {"substrate": "Nc1ncnc2c1ncn2[C@@H]1O[C@H](COP(=O)(O)OP(=O)(O)OP(=O)(O)O)[C@@H](O)[C@H]1O", "assay": "Phosphorylation of His-SpoOF immobilized on Ni-resin by KinA (high throughput assay)", "assay_type": "biochemical, Bacillus subtilis", "details": "1 μM KinA, 22° C., 20 min", "procedure": "Phosphorylation of immobilized His-SpoOF was carried out using the MultiScreen 96-well filtration plate (0.65 μm, type DVPP) from Millipore (Bedford, Mass.). The removal of liquid from the wells of the filtration plate was done with the vacuum manifold from Millipore. The His-SpoOF resin (25%, v/v) was placed into individual wells of the filtration plate and washed twice with 200 μl buffer A. A total volume of 80 μl of buffer A containing the indicated amounts of KinA, ATP, and [γ-^32 P]ATP was added to the wells.\nThe plate was then incubated for the indicated period of time at 22° C. with gentle shaking. The reaction was terminated by removal of the reaction mixture from the wells followed by three washes of the resin with buffer A.\nThe resin was then washed three times with buffer A containing 30 mM imidazole with 5 min. incubation/shaking and another three times with buffer A only. […]\nFor analysis by scintillation counting, 80 μl of 0.2 N HCl was added to each of the wells and the plate was incubated at 55° C. with gentle shaking for 1 hour. […] To each of the wells of the MicroFluor plate, 150 μl of MicroScint-40 (Packard, Meriden, Conn.) was added and the radioactivity was counted using the TopCount from Packard. […]"}, "[6]": {"substrate": "Nc1ncnc2c1ncn2[C@@H]1O[C@H](COP(=O)(O)OP(=O)(O)OP(=O)(O)O)[C@@H](O)[C@H]1O", "assay": "KinA autophosphorylation assay at higher KinA concentration and ATP competition series", "assay_type": "biochemical, Bacillus subtilis", "details": "other: KinA", "procedure": "as §1, §2"}},
  "note": "Entries after “also recorded” stand apart in the source; their conditions may differ.",
  "data": [
    {"molecule": "CCCCCCCC/C=C\\CCCCCCCC(=O)O", "note": "[cis-9-octadecanoic]", "values": [
      {"measurement": "inhibitory effect on KinA in vitro (in words)", "setting": "[1]", "value": "potent inhibitors"},
      {"measurement": "IC50", "setting": "[1]; Table 4, I0.5 at 4×10^-8 M KinA, 32P incorporation into SpoOF, read-out: Fatty Acid Inhibitors of KinA Activity (category by I0.5)", "value": "< 70", "unit": "µM"},
      {"measurement": "inhibition of KinA phosphorylation of SpoOF (in words)", "setting": "[1]; tested at 0.08% final concentration", "value": "essentially complete inhibition"},
      {"measurement": "inhibition of KinA", "setting": "[2]; 2.5×10^-5 M oleic acid, highest ATP level 2×10^-3 M", "value": "greater than 95%"},
      {"measurement": "competition of inhibition with ATP", "setting": "[2]; ATP 2×10^-5 to 2×10^-3 M, oleic acid 2.5×10^-5 and 7.0×10^-5 M", "value": "ATP is not competitive with oleic acid inhibition"},
      {"measurement": "phosphotransfer from KinA~P to SpoOF", "setting": "[2]; KinA 1×10^-6 M", "value": "can also inhibit the phosphotransfer from KinA~P to SpoOF"},
      {"measurement": "formation of KinA~P and SpoOF~P", "setting": "[2]; KinA 1×10^-6 M, 3 min, differing oleic acid concentrations", "value": "inhibits the formation of KinA~P and SpoOF~P in a concentration-dependent fashion; also recorded: acts to inhibit the autophosphorylation of KinA"},
      {"measurement": "substrate for KinA catalyzed phosphorylation", "setting": "[3]", "value": "did not serve as a substrate"},
      {"measurement": "loss of 32P from preformed KinA~P versus reaction without oleic acid", "setting": "[4]", "value": "no significant difference"}
    ]},
    {"molecule": "B1", "values": [
      {"measurement": "Km", "setting": "[5]; other: SDS-PAGE analysis", "value": 72, "unit": "µM"},
      {"measurement": "Km", "setting": "[5]; other: scintillation counting", "value": 70, "unit": "µM"}
    ]},
    {"molecule": "B2", "values": [
      {"measurement": "Km", "setting": "[6]", "value": 130, "unit": "µM"}
    ]}
  ]
}
